This note sets out measurements from US8916702B2 (priority 2012, dated 2014).

Where two headings read alike, the source gives them in different places.

This experiment concerns HCV pseudoparticles (genotype 1a HCV E1 and E2 envelope, H77C isolate). The experiment is described as follows: microbe, parasite or virus in culture. The following applies: Hepatitis C virus. Type of experiment: cell-based.
[1] abbreviates: Huh-7, 48 h, read-out: Activity (EC50 class), HCV pseudoparticle infection of Huh7 cells, luciferase 2 days after infection, EC50 expressed as class A/B.
The mark [2] stands for this setting: Huh-7, read-out: Activity (EC50 class), HCV pseudoparticles (genotype 1a, H77C) in Huh7 cells, EC50 expressed as class A/B.
Setting [3] is: Huh-7, 48 h, HCV pseudoparticle infection of Huh7 cells, luciferase 2 days after infection, average of duplicates.
[4] abbreviates: Huh-7, 48 h, read-out: Activity (EC50 class), HCV pseudoparticles, Huh7 cells, luciferase 2 days after infection, average of duplicates.
[5] abbreviates: Huh-7, 48 h, HCV pseudoparticles (genotype 1a, H77C) in Huh7 cells, average of duplicate, luciferase 2 days after infection.

In general, EC50 refers to the concentration that produces a half-maximal response. Regarding `COC1CCCCC1CNC(=O)C(=O)NCC[C@H](NC(=O)c1ccc(Nc2nc(NC3(c4ccc(Cl)cc4)CC3)nc(OCC(F)(F)F)n2)cc1)C(=O)O` (stereo partly shown) [Compound 1182], the EC50 under setting [1] was in the range of 0.01 to 10 nM.

Turning to `COc1ccc(NC(=O)C(=O)NCC(C)(C)CNC(=O)c2ccc(Nc3nc(NC4(c5ccc(Cl)cc5)CC4)nc(OCC(F)(F)F)n3)cc2)cc1F` [Compound 3072], the EC50 under setting [2] was 0.01 to 10 nM.

For `CNC(=O)C(=O)NCC[C@H](NC(=O)c1ccc(Nc2nc(NC3(c4ccc(Cl)cc4)CC3)nc(OCC(F)(F)F)n2)cc1)C(=O)OC` [Compound 1010, (S)-methyl 2-(4-(4-(1-(4-chlorophenyl)cyclopropylamino)-6-(2,2,2-trifluoroethoxy)-1,3,5-triazin-2-ylamino)benzamido)-4-(2-(methylamino)-2-oxoacetamido)butanoate], the EC50 under setting [1] lay in the range of 0.01 to 10 nM.

Consider `O=C1CC(NC(=O)C(=O)NCC[C@H](NC(=O)c2ccc(Nc3nc(NC4(c5ccc(Cl)cc5)CC4)nc(OCC(F)(F)F)n3)cc2)C(=O)O)CCN1` (stereo partly shown) [Compound 1116], for which the EC50 under setting [1] is 10 to 1000 nM.

Consider `Cn1cc(NC(=O)C(=O)NC[C@H](NC(=O)c2ccc(Nc3nc(NC4(c5ccc(Cl)cc5)CC4)nc(OCC(F)(F)F)n3)cc2)C(=O)O)cn1` [Compound 1356], for which the EC50 under setting [1] fell in the range of 0.01 to 10 nM.

Take `COC(=O)[C@H](CCNC(=O)C(=O)NC1CCCCC1O)NC(=O)c1ccc(Nc2nc(NC3(c4ccc(Cl)cc4)CC3)nc(OCC(F)(F)F)n2)cc1` (stereo partly shown) [Compound 1098]: the EC50 under setting [1] was in the range of 0.01 to 10 nM.

Take `COC(=O)[C@H](CCNC(=O)C(=O)NCC1CCc2ccccc21)NC(=O)c1ccc(Nc2nc(NC3(c4ccc(Cl)cc4)CC3)nc(OCC(F)(F)F)n2)cc1` (stereo partly shown) [Compound 1324]: the EC50 under setting [1] lay within 0.01 to 10 nM.

Turning to `COC(=O)[C@H](CNC(=O)C(=O)NC1CCCCC1C)NC(=O)c1ccc(Nc2nc(NC3(c4ccc(Cl)cc4)CC3)nc(OCC(F)(F)F)n2)cc1` (stereo partly shown) [Compound 1061], the EC50 was 1.58 nM under setting [3] and 0.01 to 10 nM under setting [1].

In the case of `O=C(NCC[C@H](NC(=O)c1ccc(Nc2nc(NC3(c4ccc(Cl)cc4)CC3)nc(OCC(F)(F)F)n2)cc1)C(=O)O)C(=O)Nc1ccc(-n2cncn2)cc1` [Compound 3231], the EC50 under setting [2] was in the range of 0.01 to 10 nM.

Take `COC(=O)[C@H](CCNC(=O)C(=O)Nc1cncn1C)NC(=O)c1ccc(Nc2nc(NC3(c4ccc(Cl)cc4)CC3)nc(OCC(F)(F)F)n2)cc1` [Compound 1225]: the EC50 under setting [1] lay within 0.01 to 10 nM.

Consider `Cc1ccc(NC(=O)C(=O)N(C)CCCN(C)C(=O)c2ccc(Nc3nc(NC4(c5ccc(Cl)cc5)CC4)nc(OCC(F)(F)F)n3)cc2)cc1Cl` [Compound 3434], for which the EC50 under setting [2] fell in the range of 0.01 to 10 nM.

On to `COC(=O)[C@H](CNC(=O)C(=O)NCC(C)c1ccccc1)NC(=O)c1ccc(Nc2nc(NC3(c4ccc(Cl)cc4)CC3)nc(OCC(F)(F)F)n2)cc1` (stereo partly shown) [Compound 1283], for which the EC50 under setting [1] fell in the range of 0.01 to 10 nM.

As for `CC(C)(CNC(=O)C(=O)Nc1ccc(/C=C/c2ccccc2)cc1)CNC(=O)c1ccc(Nc2nc(NC3(c4ccc(Cl)cc4)CC3)nc(OCC(F)(F)F)n2)cc1` [Compound 3143], the EC50 under setting [2] is 0.01 to 10 nM.

Regarding `O=C(NCC[C@H](NC(=O)c1ccc(Nc2nc(NC3(c4ccc(Cl)cc4)CC3)nc(OCC(F)(F)F)n2)cc1)C(=O)O)C(=O)NC1Cc2ccccc2C1` [Compound 1335], the EC50 under setting [1] was 0.01 to 10 nM.

For `O=C(NCC[C@H](NC(=O)c1ccc(Nc2nc(NC3(c4ccc(Cl)cc4)CC3)nc(OCC(F)(F)F)n2)cc1)C(=O)O)C(=O)Nc1ccc(-n2ccc(C(F)(F)F)n2)cc1` [Compound 3228], the EC50 under setting [2] lay within 0.01 to 10 nM.

For the compound `Cc1nccc(-c2cccc(NC(=O)C(=O)NCC[C@H](NC(=O)c3ccc(Nc4nc(NC5(c6ccc(Cl)cc6)CC5)nc(OCC(F)(F)F)n4)cc3)C(=O)O)c2)n1` [Compound 3625], the EC50 under setting [4] fell in the range of 0.01 to 10 nM.

For `COC(=O)[C@H](CCNC(=O)C(=O)NCCc1ccc(OC)cc1)NC(=O)c1ccc(Nc2nc(NC3(c4ccc(Cl)cc4)CC3)nc(OCC(F)(F)F)n2)cc1` [Compound 1310], the EC50 runs as follows: under setting [3], 0.62 nM; under setting [1], 0.01 to 10 nM.

As to `CN(CCCN(C)C(=O)c1ccc(Nc2nc(NC3(c4ccc(Cl)cc4)CC3)nc(OCC(F)(F)F)n2)cc1)C(=O)C(=O)Nc1cccc(F)c1` [Compound 3410], the EC50 under setting [2] was in the range of 0.01 to 10 nM.

Regarding `COC(=O)[C@H](CNC(=O)C(=O)NC1(Cc2ccccc2)CC1)NC(=O)c1ccc(Nc2nc(NC3(c4ccc(Cl)cc4)CC3)nc(OCC(F)(F)F)n2)cc1` [Compound 1304], the EC50 under setting [1] is 0.01 to 10 nM.

`O=C(NC[C@H](NC(=O)c1ccc(Nc2nc(NC3(c4ccc(Cl)cc4)CC3)nc(OCC(F)(F)F)n2)cc1)C(=O)O)C(=O)Nc1ccc(Cn2ccnc2)cc1` [Compound 3285]: the EC50 under setting [2] was 0.01 to 10 nM.

For the compound `O=C(NCC[C@H](NC(=O)c1ccc(Nc2nc(NC3(c4ccc(Cl)cc4)CC3)nc(OCC(F)(F)F)n2)cc1)C(=O)O)C(=O)Nc1ccc(Cn2ccnc2)cc1` [Compound 3540], the EC50 is, setting by setting: under setting [5], 26.2 nM; under setting [2], 10 to 1000 nM.

On to `COC(=O)[C@H](CNC(=O)C(=O)Nc1ccc(-c2cnco2)cc1)NC(=O)c1ccc(Nc2nc(NC3(c4ccc(Cl)cc4)CC3)nc(OCC(F)(F)F)n2)cc1` [Compound 3093], for which the EC50 under setting [2] was 0.01 to 10 nM.

As to `CC1CC(=O)c2ccc(NC(=O)C(=O)NCC(C)(C)CNC(=O)c3ccc(Nc4nc(NC5(c6ccc(Cl)cc6)CC5)nc(OCC(F)(F)F)n4)cc3)cc2O1` (stereo not shown) [Compound 3336], the EC50 is, setting by setting: under setting [5], 0.09 nM; under setting [2], 0.01 to 10 nM.

Consider `Cc1ccc(C2CC2CNC(=O)C(=O)NCC[C@H](NC(=O)c2ccc(Nc3nc(NC4(c5ccc(Cl)cc5)CC4)nc(OCC(F)(F)F)n3)cc2)C(=O)O)cc1` (stereo partly shown) [Compound 1444], for which, under setting [1], the EC50 was 0.01 to 10 nM.

On to `CC(C)c1cccc(NC(=O)C(=O)NCC[C@H](NC(=O)c2ccc(Nc3nc(NC4(c5ccc(Cl)cc5)CC4)nc(OCC(F)(F)F)n3)cc2)C(=O)O)c1` [Compound 3627], for which the EC50 runs as follows: (Huh-7, 48 h, HCV pseudoparticles, Huh7 cells, luciferase 2 days after infection, average of duplicates) 0.1 nM; under setting [4], 0.01 to 10 nM.

For `CC(C)(CNC(=O)C(=O)Nc1ccc(Cl)cc1)CNC(=O)c1ccc(Nc2nc(NC3(c4ccc(Cl)cc4)CC3)nc(OCC(F)(F)F)n2)cc1` [Compound 1559], the EC50 under setting [1] was 0.01 to 10 nM.

As to `O=C(NCC[C@H](NC(=O)c1ccc(Nc2nc(NC3(c4ccc(Cl)cc4)CC3)nc(OCC(F)(F)F)n2)cc1)C(=O)O)C(=O)NCC1CCOCC1` [Compound 1215], the EC50 under setting [1] fell in the range of 0.01 to 10 nM.

In the case of `O=C(NCC[C@H](NC(=O)c1ccc(Nc2nc(NC3(c4ccc(Cl)cc4)CC3)nc(OCC(F)(F)F)n2)cc1)C(=O)O)C(=O)NCC1CC1c1ccc(F)cc1` (stereo partly shown) [Compound 1438], the EC50 under setting [1] lay in the range of 0.01 to 10 nM.

In the case of `O=C(NC[C@H](NC(=O)c1ccc(Nc2nc(NC3(c4ccc(Cl)cc4)CC3)nc(OCC(F)(F)F)n2)cc1)C(=O)O)C(=O)Nc1ccc(-c2ccncc2)cc1` [Compound 3266], the EC50 under setting [2] was in the range of 0.01 to 10 nM.

In the case of `CC(C)(CNC(=O)C(=O)Nc1ccc(C(F)(F)F)cc1)CNC(=O)c1ccc(Nc2nc(NC3(c4ccc(Cl)cc4)CC3)nc(OCC(F)(F)F)n2)cc1` [Compound 3011], the EC50 under setting [2] was 0.01 to 10 nM.

For the compound `O=C(NC[C@H](NC(=O)c1ccc(Nc2nc(NC3(c4ccc(Cl)cc4)CC3)nc(OCC(F)(F)F)n2)cc1)C(=O)O)C(=O)Nc1ccc(-n2ccnc2)cc1` [Compound 3268], the EC50 under setting [2] was in the range of 0.01 to 10 nM.

On to `COC(=O)[C@H](CCNC(=O)C(=O)NCc1ccc(F)cc1)NC(=O)c1ccc(Nc2nc(NC3(c4ccc(Cl)cc4)CC3)nc(OCC(F)(F)F)n2)cc1` [Compound 1145], for which the EC50 under setting [1] fell in the range of 0.01 to 10 nM.

As to `CC(C)(CNC(=O)C(=O)Nc1ccc(F)c(F)c1F)CNC(=O)c1ccc(Nc2nc(NC3(c4ccc(Cl)cc4)CC3)nc(OCC(F)(F)F)n2)cc1` [Compound 3262], under setting [2], the EC50 lay in the range of 0.01 to 10 nM.

`COC(=O)[C@@H](CCNC(=O)C(=O)Nc1cccc(Oc2ccccc2)c1)NC(=O)c1ccc(Nc2nc(NC3(c4ccc(Cl)cc4)CC3)nc(OCC(F)(F)F)n2)cc1` [Compound 3578]: the EC50 under setting [2] fell in the range of 0.01 to 10 nM.

As to `COC(=O)[C@H](CNC(=O)C(=O)Nc1cccc(S(=O)(=O)C(F)(F)F)c1)NC(=O)c1ccc(Nc2nc(NC3(c4ccc(Cl)cc4)CC3)nc(OCC(F)(F)F)n2)cc1` [Compound 3710], the EC50 under setting [4] is 0.01 to 10 nM.

Take `COC(=O)[C@H](CNC(=O)C(=O)NC1CCCCC1)NC(=O)c1ccc(Nc2nc(NC3(c4ccc(Cl)cc4)CC3)nc(OCC(F)(F)F)n2)cc1` [Compound 1132]: the EC50 under setting [1] fell in the range of 0.01 to 10 nM.

On to `NC(=O)C(=O)NCCC[C@H](NC(=O)c1ccc(Nc2nc(NC3(c4ccc(Cl)cc4)CC3)nc(OCC(F)(F)F)n2)cc1)C(=O)O` [Compound 1016, (S)-5-(2-amino-2-oxoacetamido)-2-(4-(4-(1-(4-chlorophenyl)cyclopropylamino)-6-(2,2,2-trifluoroethoxy)-1,3,5-triazin-2-ylamino)benzamido)pentanoic acid], for which the EC50 under setting [1] is 0.01 to 10 nM.

For `CC(C)(C)OC(=O)N1CCC(NC(=O)C(=O)NCC[C@H](NC(=O)c2ccc(Nc3nc(NC4(c5ccc(Cl)cc5)CC4)nc(OCC(F)(F)F)n3)cc2)C(=O)O)CC1` [Compound 1119], under setting [1], the EC50 lay within 0.01 to 10 nM.

Turning to `CC(C)(CNC(=O)C(N)=O)CNC(=O)c1ccc(Nc2nc(NC3(c4ccc(Cl)cc4)CC3)nc(OCC(F)(F)F)n2)cc1Cl` [Compound 3477], the EC50 runs as follows: under setting [5], 0.12 nM; under setting [2], 0.01 to 10 nM.

Regarding `CC(C)(CNC(=O)c1ccc(Nc2nc(NC3(c4ccc(Cl)cc4)CC3)nc(OCC(F)(F)F)n2)cc1)NC(=O)C(=O)NC1CCCCC1` [Compound 3436], the EC50 was 0.081 nM under setting [5] and 0.01 to 10 nM under setting [2].

For `CC(C)(CNC(=O)C(=O)Nc1nc2ccc(S(N)(=O)=O)cc2s1)CNC(=O)c1ccc(Nc2nc(NC3(c4ccc(Cl)cc4)CC3)nc(OCC(F)(F)F)n2)cc1` [Compound 3825], under setting [4], the EC50 lay within 0.01 to 10 nM.

For the compound `O=C(NCCc1c[nH]cn1)C(=O)NC[C@H](NC(=O)c1ccc(Nc2nc(NC3(c4ccc(Cl)cc4)CC3)nc(OCC(F)(F)F)n2)cc1)C(=O)O` [Compound 1407], the EC50 under setting [1] was in the range of 0.01 to 10 nM.
